According to the supplement of paper PMC10307832:

Tests used:
Test in all cases: relative viability (nuclei count vs DMSO), 5 days (fraction); higher = more cells survive
Obatoclax + Pemetrexed = compound: COC1=CC(c2cc3ccccc3[nH]2)=N/C1=C\c1[nH]c(C)cc1C [Obatoclax] + Nc1nc2[nH]cc(CCc3ccc(C(=O)N[C@@H](CCC(=O)O)C(=O)O)cc3)c2c(=O)[nH]1 [Pemetrexed] (partner 0.2 µM)
How it was run: (§1)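 Relative viability is defined as nuclei in treated wells over nuclei in vehicle wells. Duplicate plates were run and medians reported. Lung cancer cell lines in 1536-well plates were dosed by pin tool one day after seeding, with one drug or with a fixed anchor-drug dose plus five library-drug doses (not always all listed) in √10 steps, and nuclei were counted after 5 days.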

Obatoclax + Decitabine = compound: COC1=CC(c2cc3ccccc3[nH]2)=N/C1=C\c1[nH]c(C)cc1C [Obatoclax] + Nc1ncn([C@H]2C[C@H](O)[C@@H](CO)O2)c(=O)n1 [Decitabine] (partner 2 µM)
How it was run: as §1

Bortezomib + Linsitinib = compound: CC(C)C[C@H](NC(=O)[C@H](Cc1ccccc1)NC(=O)c1cnccn1)B(O)O [Bortezomib] + C[C@]1(O)C[C@@H](c2nc(-c3ccc4ccc(-c5ccccc5)nc4c3)c3c(N)nccn32)C1 [Linsitinib] (partner 1 µM)
How it was run: as §1

Bortezomib + Alpelisib = compound: CC(C)C[C@H](NC(=O)[C@H](Cc1ccccc1)NC(=O)c1cnccn1)B(O)O [Bortezomib] + Cc1nc(NC(=O)N2CCC[C@H]2C(N)=O)sc1-c1ccnc(C(C)(C)C(F)(F)F)c1 [Alpelisib] (partner 2 µM)
How it was run: as §1

Cell Line: NCI-H650
- relative viability (Obatoclax + Pemetrexed; first compound 0.01 µM): 1.01
- relative viability (Obatoclax + Pemetrexed; first compound 0.03162 µM): 0.86
- relative viability (Obatoclax + Pemetrexed; first compound 0.3162 µM): 0.944
- relative viability (Obatoclax + Pemetrexed; first compound 1 µM): 0.443
- relative viability (Obatoclax + Decitabine; first compound 0.01 µM): 0.299
- relative viability (Obatoclax + Decitabine; first compound 0.03162 µM): 0.312
- relative viability (Obatoclax + Decitabine; first compound 0.3162 µM): 0.237
- relative viability (Obatoclax + Decitabine; first compound 1 µM): 0.217
- relative viability (Bortezomib + Linsitinib; first compound 0.000632 µM): 0.806
- relative viability (Bortezomib + Linsitinib; first compound 0.002 µM): 0.811
- relative viability (Bortezomib + Linsitinib; first compound 0.006325 µM): 0.338
- relative viability (Bortezomib + Linsitinib; first compound 0.02 µM): 0.234
- relative viability (Bortezomib + Alpelisib; first compound 0.000632 µM): 1.18
- relative viability (Bortezomib + Alpelisib; first compound 0.002 µM): 0.819
- relative viability (Bortezomib + Alpelisib; first compound 0.006325 µM): 0.355
- relative viability (Bortezomib + Alpelisib; first compound 0.02 µM): 0.182
